# Where a name gives a salt, the structure may show the parent alone.
# Test system: not given
# Assay: not given
# Conditions: not given
row,melting point [°C],Structure (SMILES)
1,171 to 173,"FC(F)(F)c1ccc(-c2nccs2)c(Oc2ccc3nnc(Cl)n3n2)c1 (as salt: potassium) [Cpd.4-105, 3-chloro-6-(2-(thiazol-2-yl)-5-(trifluoromethyl)phenoxy)-[1,2,4]triazolo[4,3-b]pyridazine]"
2,191 to 192,"FC(F)(F)c1ccc(-c2cscn2)c(Oc2ccc3nnc(Cl)n3n2)c1 (as salt: potassium) [Cpd.4-106, 3-chloro-6-(2-(thiazol-4-yl)-5-(trifluoromethyl)phenoxy)-[1,2,4]triazolo[4,3-b]pyridazine]"
3,164.6 to 167.7,"NCc1ccc(-c2ccccc2)c(Oc2ccc3nnc(Cl)n3n2)c1 (as salt: sodium) [Cpd.4-65, 3-chloro-6-(4-aminomethyl-biphenyl-2-yloxy)-[1,2,4]triazolo[4,3-b]pyridazine]"

# Molecular target: T1, Rev-Erb alpha (Homo sapiens, UniProt P20393)
# T1 sequence (P20393 284-614 limits assumed): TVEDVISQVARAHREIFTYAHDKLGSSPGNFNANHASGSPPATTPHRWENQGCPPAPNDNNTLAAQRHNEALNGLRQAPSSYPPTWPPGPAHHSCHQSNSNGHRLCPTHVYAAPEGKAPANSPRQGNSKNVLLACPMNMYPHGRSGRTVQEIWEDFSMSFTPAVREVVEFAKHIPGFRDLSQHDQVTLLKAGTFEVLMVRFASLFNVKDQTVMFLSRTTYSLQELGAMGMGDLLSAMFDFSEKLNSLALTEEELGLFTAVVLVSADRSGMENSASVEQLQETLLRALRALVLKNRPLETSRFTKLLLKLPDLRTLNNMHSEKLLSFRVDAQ
# Assay: M2H (mammalian two-hybrid) cellular activation assay of Rev-Erb alpha
# Assay type: cell-based
# Conditions: HEK293, read-out: TOP activation
# Method in brief: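 Six-point dose-response, 18 h, 37 °C, serum-free, in HEK293 cells carrying a Gal4-RE luciferase reporter with Gal4-Rev-Erb alpha or beta plus VP16-NCoR (corepressor interaction readout). EC50 and TOP activation (%) derived from luminescence across four experiments.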
row,Structure (SMILES),Emax [%]
1,Fc1ccc(Oc2ccc3nnc(Cl)n3n2)c(-c2cccc(CN3CCCCC3)c2)c1 [hydrochloride],> 130

# Same assay, conditions: M2H assay, HEK293 cells, Gal4-Rev-Erb alpha / VP16-NCoR, luciferase reporter
row,EC50 [µM],Structure (SMILES)
1,0.1 to 1,"Cc1nc(-c2ccc(-c3ccccc3)c(Oc3ccc4nnc(Cl)n4n3)c2)no1 [Cpd.4-197, 3-chloro-6-(5-(5-methyl-1,2,4-oxadiazol-3-yl)-2-(phenyl)phenoxy)-[1,2,4]triazolo[4,3-b]pyridazine]"
2,0.1 to 1,"Cc1nc(-c2ccc(Oc3ccc4nnc(Cl)n4n3)c(-c3ccccc3)c2)no1 [Cpd.4-198, 3-chloro-6-(4-(5-methyl-1,2,4-oxadiazol-3-yl)-2-(phenyl)phenoxy)-[1,2,4]triazolo[4,3-b]pyridazine]"
3,> 6,"Cc1nc(-c2ccc(-c3cccnc3)c(Oc3ccc4nnc(Cl)n4n3)c2)no1 [Cpd.4-199, 3-chloro-6-(5-(5-methyl-1,2,4-oxadiazol-3-yl)-2-(pyridin-3-yl)phenoxy)-[1,2,4]triazolo[4,3-b]pyridazine]"
4,< 0.1,"FC(F)(F)c1ccc(-c2ccccc2)c(Oc2nn3c(Cl)nnc3c3ccccc23)c1 [Cpd.5-1, 3-chloro-6-(4-trifluoromethyl-biphenyl-2-yloxy)-[1,2,4]triazolo[3,4-a]phthalazine]"
5,0.1 to 1,"Fc1ccc2c(Oc3cc(C(F)(F)F)ccc3-c3ccccc3)nn3c(Cl)nnc3c2c1 [Cpd.5-2, 3-chloro-6-(4-trifluoromethyl-biphenyl-2-yloxy)-9-fluoro-[1,2,4]triazolo[3,4-a]phthalazine]"
6,0.1 to 1,"CCc1c(Oc2cc(C(F)(F)F)ccc2-c2ccccc2)nn2c(Cl)nnc2c1CC [Cpd.5-12, 3-chloro-7,8-diethyl-6-(4-trifluoromethyl-biphenyl-2-yloxy)-[1,2,4]triazolo[4,3-b]pyridazine]"
7,0.1 to 1,"Cc1ccc(-c2ccc(C(F)(F)F)cc2Oc2cc(C)c3nnc(Cl)n3n2)cn1 [Cpd.5-16, 3-chloro-8-methyl-6-(2-(6-methylpyridin-3-yl)-5-(trifluoromethyl)phenoxy)-[1,2,4]triazolo[4,3-b]pyridazine]"
8,0.1 to 1,"Cc1ccc(-c2ccc(C(F)(F)F)cc2Oc2nn3c(Cl)nnc3cc2C)cn1 [Cpd.5-17, 3-chloro-7-methyl-6-(2-(6-methylpyridin-3-yl)-5-(trifluoromethyl)phenoxy)-[1,2,4]triazolo[4,3-b]pyridazine]"
9,0.1 to 1,"Cc1ccc(-c2ccc(C(F)(F)F)cc2Oc2nn3c(Cl)nnc3c3ccccc23)cn1 [Cpd.5-18, 3-chloro-6-(2-(6-methylpyridin-3-yl)-5-(trifluoromethyl)phenoxy)-[1,2,4]triazolo[3,4-a]phthalazine]"
10,0.1 to 1,"Cc1ncccc1-c1ccc(C(F)(F)F)cc1Oc1cc(C)c2nnc(Cl)n2n1 [Cpd.5-19, 3-chloro-8-methyl-6-(2-(2-methylpyridin-3-yl)-5-(trifluoromethyl)phenoxy)-[1,2,4]triazolo[4,3-b]pyridazine]"
11,0.1 to 1,"Cc1cc2nnc(Cl)n2nc1Oc1cc(C(F)(F)F)ccc1-c1cccnc1C [Cpd.5-20, 3-chloro-7-methyl-6-(2-(2-methylpyridin-3-yl)-5-(trifluoromethyl)phenoxy)-[1,2,4]triazolo[4,3-b]pyridazine]"
12,0.1 to 1,"Cc1ncccc1-c1ccc(C(F)(F)F)cc1Oc1nn2c(Cl)nnc2c2ccccc12 [Cpd.5-21, 3-chloro-6-(2-(2-methylpyridin-3-yl)-5-(trifluoromethyl)phenoxy)-[1,2,4]triazolo[3,4-a]phthalazine]"
13,0.1 to 1,"FC(F)(F)c1ccc(-c2cncnc2)c(Oc2nn3c(Cl)nnc3c3ccccc23)c1 [Cpd.5-22, 3-chloro-6-(2-(pyrimidin-5-yl)-5-(trifluoromethyl)phenoxy)-[1,2,4]triazolo[3,4-a]phthalazine]"
14,1 to 6,"COc1ncccc1-c1ccc(C(F)(F)F)cc1Oc1nn2c(Cl)nnc2c(C)c1C [Cpd.5-25, 3-chloro-7,8-dimethyl-6-((2-(2-methoxypyridin-3-yl))-5-(trifluoromethyl)phenoxy)-[1,2,4]triazolo[4,3-b]pyridazine]"
15,1 to 6,"COc1ncc(C)cc1-c1ccc(C(F)(F)F)cc1Oc1nn2c(Cl)nnc2cc1C [Cpd.5-28, 3-chloro-7-methyl-6-((2-(2-methoxy-5-methylpyridin-3-yl))-5-(trifluoromethyl)phenoxy)-[1,2,4]triazolo[4,3-b]pyridazine]"
16,1 to 6,"Cc1cc2nnc(Cl)n2nc1Oc1cc(C(F)(F)F)ccc1-c1cncnc1 [Cpd.5-29, 3-chloro-7-methyl-6-(2-(pyrimidin-5-yl)-5-(trifluoromethyl)phenoxy)-[1,2,4]triazolo[4,3-b]pyridazine]"
17,1 to 6,"Cc1cc(Oc2cc(C(F)(F)F)ccc2-c2cncnc2)nn2c(Cl)nnc12 [Cpd.5-30, 3-chloro-8-methyl-6-(2-(pyrimidin-5-yl)-5-(trifluoromethyl)phenoxy)-[1,2,4]triazolo[4,3-b]pyridazine]"
18,1 to 6,"Cc1cc2nnc(Cl)n2nc1Oc1c(-c2cncnc2)ccc(C(F)(F)F)c1F [Cpd.5-31, 3-chloro-6-(2-fluoro-6-(pyrimidin-5-yl)-3-(trifluoromethyl)phenoxy)-7-methyl-[1,2,4]triazolo[4,3-b]pyridazine]"
19,0.1 to 1,"COc1ncc(-c2ccc(C(F)(F)F)cc2Oc2cc(C)c3nnc(Cl)n3n2)cn1 [Cpd.5-34, 3-chloro-8-methyl-6-((2-(2-methoxypyrimidin-5-yl))-5-(trifluoromethyl)phenoxy)-[1,2,4]triazolo[4,3-b]pyridazine]"
20,1 to 6,"COc1ncc(-c2ccc(C(F)(F)F)cc2Oc2nn3c(Cl)nnc3cc2C)cn1 [Cpd.5-35, 3-chloro-7-methyl-6-((2-(2-methoxypyrimidin-5-yl))-5-(trifluoromethyl)phenoxy)-[1,2,4]triazolo[4,3-b]pyridazine]"
21,0.1 to 1,"COc1ncc(-c2ccc(C(F)(F)F)cc2Oc2nn3c(Cl)nnc3c3ccccc23)cn1 [Cpd.5-36, 3-chloro-6-((2-(2-methoxypyrimidin-5-yl))-5-(trifluoromethyl)phenoxy)-[1,2,4]triazolo[3,4-a]phthalazine]"
22,1 to 6,"Cc1cc(Oc2cc(C(F)(F)F)ccc2-c2cncnc2C(C)C)nn2c(Cl)nnc12 [Cpd.5-38, 3-chloro-8-methyl-6-((2-(4-isopropylpyrimidin-5-yl))-5-(trifluoromethyl)phenoxy)-[1,2,4]triazolo[4,3-b]pyridazine]"
23,1 to 6,"Cc1cc(Oc2cccc(C(F)(F)F)c2-c2cncnc2)nn2c(Cl)nnc12 [Cpd.5-42, 3-chloro-8-methyl-6-(2-(pyrimidin-5-yl)-3-(trifluoromethyl)phenoxy)-[1,2,4]triazolo[4,3-b]pyridazine]"
24,1 to 6,"Cc1ncncc1-c1ccc(C(F)(F)F)cc1Oc1cc(C)c2nnc(Cl)n2n1 [Cpd.5-45, 3-chloro-8-methyl-6-(2-(4-methylpyrimidin-5-yl)-5-(trifluoromethyl)phenoxy)-[1,2,4]triazolo[4,3-b]pyridazine]"
25,1 to 6,"Cc1cc2nnc(Cl)n2nc1Oc1cc(C(F)(F)F)ccc1-c1cncnc1C [Cpd.5-47, 3-chloro-7-methyl-6-(2-(4-methylpyrimidin-5-yl)-5-(trifluoromethyl)phenoxy)-[1,2,4]triazolo[4,3-b]pyridazine]"
26,1 to 6,"COc1ncc(-c2ccc(C(F)(F)F)cc2Oc2cc(C)c3nnc(Cl)n3n2)c(OC)n1 [Cpd.5-50, 3-chloro-6-(2-(2,4-dimethoxypyrimidin-5-yl)-5-(trifluoromethyl)phenoxy)-8-methyl-[1,2,4]triazolo[4,3-b]pyridazine]"
27,1 to 6,"COc1ncc(-c2ccc(C(F)(F)F)cc2Oc2nn3c(Cl)nnc3cc2C)c(OC)n1 [Cpd.5-51, 3-chloro-6-(2-(2,4-dimethoxypyrimidin-5-yl)-5-(trifluoromethyl)phenoxy)-7-methyl-[1,2,4]triazolo[4,3-b]pyridazine]"
28,1 to 6,"CCc1ncncc1-c1ccc(C(F)(F)F)cc1Oc1nn2c(Cl)nnc2cc1C [Cpd.5-52, 3-chloro-6-(2-(4-ethylpyrimidin-5-yl)-5-(trifluoromethyl)phenoxy)-7-methyl-[1,2,4]triazolo[4,3-b]pyridazine]"
29,1 to 6,"CCc1ncncc1-c1ccc(C(F)(F)F)cc1Oc1cc(C)c2nnc(Cl)n2n1 [Cpd.5-53, 3-chloro-6-(2-(4-ethylpyrimidin-5-yl)-5-(trifluoromethyl)phenoxy)-8-methyl-[1,2,4]triazolo[4,3-b]pyridazine]"
30,1 to 6,"Cc1nc(-c2ccc(Oc3nn4c(Cl)nnc4cc3C)c(-c3ccccc3)c2)no1 [Cpd.5-65, 3-chloro-7-methyl-6-(4-(5-methyl-1,2,4-oxadiazol-3-yl)-2-(phenyl)phenoxy)-[1,2,4]triazolo[4,3-b]pyridazine]"

row,Structure (SMILES),EC50 [µM]
1,Fc1ccc(Oc2ccc3nnc(Cl)n3n2)c(-c2cccc(CN3CCCCC3)c2)c1 [hydrochloride],> 6

# Same assay, conditions: M2H assay, HEK293 cells; relative to DMSO; at the tested dose; read-out: TOP activation
row,Emax [%],Structure (SMILES)
1,> 130,"Cc1nc(-c2ccc(-c3cccnc3)c(Oc3ccc4nnc(Cl)n4n3)c2)no1 [Cpd.4-199, 3-chloro-6-(5-(5-methyl-1,2,4-oxadiazol-3-yl)-2-(pyridin-3-yl)phenoxy)-[1,2,4]triazolo[4,3-b]pyridazine]"

# From US9586963B2 (GENFIT, priority 2011, dated 2017)
